Among the data in patent US20240158383A1, “RIBONUCLEOTIDE REDUCTASE (RNR) INHIBITORS AND USES THEREOF” (Boundless Bio, Inc., priority 2021, published 2024) are IC50 values, retold here.

Experiment [1] relates to pCHK1 (S345) in Colo320 DM cells. The experiment can be described thus: CHK1 cellular activity (phospho-CHK1 AlphaLisa). In kind it is cell-based, human. Conditions: Homo sapiens, COLO 320DM, 16 h, compound overnight (approximately 16 hours). As to the method:
Phospho-CHK1 cellular activity was measured as a marker of replication stress which is a consequence of RNR inhibition.
Colo320 DM cells (ATCC #CCL-220, derived from human colorectal adenocarcinoma, Dukes' type C) were seeded on a 96-well cell culture treated assay plate at a density of 50,000 cells/well in 200 μL of RPMI-1640 media supplemented with 10% Fetal Bovine Serum and incubated at 37 degrees Celsius overnight. The following day, test compound dilutions were added directly to the plated cells by a Tecan digital dispenser to a final DMSO concentration of <0.5% and incubated at 37 degrees Celsius overnight (approximately 16 hours). The following day all culture media is removed from the cells. 75 μL of 1× AlphaLisa lysis buffer is added to each well and plates are agitated on a shaker for 30 minutes at room temperature. The lysis of cells and detection of pCHK1 (S345) are performed with reagents contained within the AlphaLisa Sure Fire assay kit (Perkin Elmer #ALSU-PCHK1-A) according to the manufacturer's instructions. 10 μL of each lysate was then transferred to a white, 384-well assay plate (Perkin Elmer #6008280). 5 μL of Acceptor mix was then added to each well of lysate in the white, 384-well assay plate and incubated in the dark at room temperature for 60 minutes. 5 μL of Donor mix was then added to each well of the white, 384-well assay plate in subdued light and incubated at room temperature for 60 minutes. Plates are read on an Alpha Technology-compatible plate reader using standard AlphaLisa settings.
(In Alpha technology, singlet oxygen from a donor bead excites a nearby acceptor bead.)

Experiment [2] deals with RNR (RNR1:RNR2) (Homo sapiens (Human), UniProt P23921+P31350). The experiment can be described thus: RNR enzyme activity, rapid-fire mass spectrometry (RFMS) assay. It counts as biochemical. Conditions: [RNR] 50 nM, 1:1 RNR1:RNR2, [CDP] 5 μM, [ATP] 1 mM, 37° C., 45 min. As to the method: A rapid-fire mass spectrometry (RFMS) assay was used to assess RNR enzyme activity using a 384 well plate and a robotic platform.
RNR (RNR1:RNR2), sequence (P23921 whole entry): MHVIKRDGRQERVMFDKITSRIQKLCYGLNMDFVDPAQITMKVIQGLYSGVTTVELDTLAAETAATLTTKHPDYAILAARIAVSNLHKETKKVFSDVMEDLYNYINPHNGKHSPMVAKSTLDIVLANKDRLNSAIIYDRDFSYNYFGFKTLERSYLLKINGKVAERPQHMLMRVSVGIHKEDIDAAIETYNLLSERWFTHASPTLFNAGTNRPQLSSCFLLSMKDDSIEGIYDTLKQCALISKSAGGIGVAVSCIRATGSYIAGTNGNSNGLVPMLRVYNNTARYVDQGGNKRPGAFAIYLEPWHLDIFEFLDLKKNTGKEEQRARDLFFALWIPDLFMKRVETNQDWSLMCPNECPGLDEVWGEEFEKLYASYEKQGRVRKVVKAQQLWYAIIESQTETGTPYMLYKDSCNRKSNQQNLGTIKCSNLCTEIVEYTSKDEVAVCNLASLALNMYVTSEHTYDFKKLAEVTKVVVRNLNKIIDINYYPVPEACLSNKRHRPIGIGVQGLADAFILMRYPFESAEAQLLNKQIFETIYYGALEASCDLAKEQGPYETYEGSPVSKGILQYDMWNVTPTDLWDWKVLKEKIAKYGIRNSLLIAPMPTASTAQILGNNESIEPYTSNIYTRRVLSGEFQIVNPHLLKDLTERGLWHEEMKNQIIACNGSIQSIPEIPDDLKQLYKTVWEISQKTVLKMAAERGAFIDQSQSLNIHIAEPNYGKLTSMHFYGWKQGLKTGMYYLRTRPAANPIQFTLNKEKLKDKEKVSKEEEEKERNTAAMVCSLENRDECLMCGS
RNR (RNR1:RNR2), sequence (P31350 whole entry): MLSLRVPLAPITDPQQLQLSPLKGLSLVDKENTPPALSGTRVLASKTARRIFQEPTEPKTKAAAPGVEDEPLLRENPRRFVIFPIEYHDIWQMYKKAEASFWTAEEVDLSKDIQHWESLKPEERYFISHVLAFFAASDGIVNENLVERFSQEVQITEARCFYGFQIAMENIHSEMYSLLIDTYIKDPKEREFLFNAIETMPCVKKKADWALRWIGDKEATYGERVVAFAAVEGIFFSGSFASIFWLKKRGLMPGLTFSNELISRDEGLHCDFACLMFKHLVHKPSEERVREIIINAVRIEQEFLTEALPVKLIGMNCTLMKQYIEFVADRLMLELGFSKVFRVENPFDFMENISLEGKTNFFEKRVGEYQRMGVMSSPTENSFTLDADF
The plate layout included two validated reference compounds (Triapine (3-AP) and Hydroxyurea (HU)): • A dose response in duplicate; top concentration: 5 μM (3-AP) and 250 μM (HU), semi-log • dilutions. • Spike wells in triplicate randomly spotted at four concentrations: • 250 μM, 100 μM, 30 μM and 2 μM for HU • 5 μM, 2 μM, 0.6 μM and 0.04 μM for 3-AP
First, the multidrop pipes were saturated for 30 minutes with enzymatic solution. Then 30 μL of Stop solution was distributed in column 24. Next, 15 μL of enzyme was distributed in column 1 to 24. Next, a pre-incubation step of 15 minutes at room temperature occurred, followed by distribution of 15 μL of substrate solution (column 1 to 24). Next, the plate was incubated for 45 minutes at 37° C. 30 μL of Stop solution was distributed to columns 1 to 23.
The final parameters for the enzyme reactions were: • Incubation: 37° C., 45 min • [CDP]: 5 μM; [ATP]: 1 mM; [NADPH]: No • [RNR]final: 50 nM with 1:1 (RNR1:RNR2) ratio • Final volume: 30 μL • Stop solution: 6% HCOOH containing 2 μM of 15
The compounds were screened at concentrations from 10 nM to 30 μM.

What is called IC50 is the concentration needed to halve the response being measured. A higher IC50 goes with a need for much substance.

Regarding `Cc1ccc(F)c([C@@H](C)[C@H](NS(=O)(=O)c2ccc(Cl)c(Cl)c2)c2nn[nH]n2)c1C` [Example 32, 3,4-dichloro-N-((1S,2R)-2-(6-fluoro-2,3-dimethylphenyl)-1-(2H-tetrazol-5-yl)propyl)benzenesulfonamide], the 50% inhibitory concentration (IC50) in experiment [1] lay within 50 to 100 µM; in experiment [2], 100 to 1000 nM.

In the case of `Cc1ccc(F)c([C@@H](C)[C@H](NS(=O)(=O)c2ccc(Cl)cc2)c2nn[nH]n2)c1C` [Example 33, 4-chloro-N-((1S,2R)-2-(6-fluoro-2,3-dimethylphenyl)-1-(2H-tetrazol-5-yl)propyl)benzenesulfonamide], the IC50 in experiment [1] lay within 30 to 50 µM; in experiment [2], 100 to 1000 nM.

Regarding `COc1cc(Cl)ccc1S(=O)(=O)N[C@H](c1nnnn1C)[C@H](C)c1c(F)ccc(C)c1C` [Example 34, 4-chloro-N-((1S,2R)-2-(6-fluoro-2,3-dimethylphenyl)-1-(1-methyl-1H-tetrazol-5-yl)propyl)-2-methoxybenzensulfonamide], the 50% inhibitory concentration (IC50) in experiment [1] is 50 to 100 µM; in experiment [2] it was 5000 to 30000 nM.

In the case of `COc1cc(Cl)ccc1S(=O)(=O)N[C@H](c1nnn(C)n1)[C@H](C)c1c(F)ccc(C)c1C` [Example 35, 4-chloro-N-((1S,2R)-2-(6-fluoro-2,3-dimethylphenyl)-1-(2-methyl-2H-tetrazol-5-yl)propyl)-2-methoxybenzensulfonamide], the figures for the concentration for half-maximal inhibition (IC50) in experiment [1] and in experiment [2] were 50 to 100 µM and 5000 to 30000 nM, respectively.

In the case of `Cc1ccc(F)c([C@@H](C)[C@H](NS(=O)(=O)c2cc(Cl)c(F)cc2F)c2nn[nH]n2)c1C` [Example 36, 5-chloro-2,4-difluoro-N-((1S,2R)-2-(6-fluoro-2,3-dimethylphenyl)-1-(2H-tetrazol-5-yl)propyl)benzenesulfonamide], the half-inhibitory concentration (IC50) fell in the range of 50 to 100 µM in experiment [1] and 1000 to 5000 nM in experiment [2].

Regarding `Cc1ccc(F)c([C@@H](C)[C@H](NS(=O)(=O)c2ccc(F)c(C#N)c2)c2nn[nH]n2)c1C` [Example 37, 3-cyano-4-fluoro-N-((1S,2R)-2-(6-fluoro-2,3-dimethylphenyl)-1-(2H-tetrazol-5-yl)propyl)benzensulfonamide], the half-maximal inhibitory concentration (IC50) is 50 to 100 µM in experiment [1] and 1000 to 5000 nM in experiment [2].

Consider `Cc1ccc(F)c([C@@H](C)[C@H](NS(=O)(=O)c2ccc(F)c(C(N)=O)c2)c2nn[nH]n2)c1C` [Example 38, 2-fluoro-5-(N-((1S,2R)-2-(6-fluoro-2,3-dimethylphenyl)-1-(2H-tetrazol-5-yl)propyl)sulfamoyl)benzamide], for which the values for the IC50 in experiment [1] and in experiment [2] were 50 to 100 µM and 1000 to 5000 nM, respectively.

Consider `Cc1ccc(F)c([C@@H](C)[C@H](NS(=O)(=O)c2ccc(Cl)cc2Cl)c2nn[nH]n2)c1C` [Example 39, 2,4-dichloro-N-((1S,2R)-2-(6-fluoro-2,3-dimethylphenyl)-1-(2H-tetrazol-5-yl)propyl)benzenesulfonamide], for which the IC50 was 10 to 30 µM in experiment [1] and 100 to 1000 nM in experiment [2].

As to `Cc1ccc(F)c([C@@H](C)[C@H](NS(=O)(=O)c2cc(Cl)c(Cl)cc2F)c2nn[nH]n2)c1C` [Example 40, 4,5-dichloro-2-fluoro-N-((1S,2R)-2-(6-fluoro-2,3-dimethylphenyl)-1-(2H-tetrazol-5-yl)propyl)benzenesulfonamide], the results for the 50% inhibitory concentration (IC50) in experiment [1] and in experiment [2] were 50 to 100 µM and 1000 to 5000 nM, respectively.

On to `Cc1ccc(F)c([C@@H](C)[C@H](NS(=O)(=O)c2ccc(Cl)cc2O)c2nn[nH]n2)c1C` [Example 41, 4-chloro-N-((1S,2R)-2-(6-fluoro-2,3-dimethylphenyl)-1-(2H-tetrazol-5-yl)propyl)-2-hydroxybenzenesulfonamide], for which the half-maximal inhibitory concentration (IC50) in experiment [1] lay within 50 to 100 µM; in experiment [2], 100 to 1000 nM.

With `Cc1cc(S(=O)(=O)N[C@H](c2nn[nH]n2)[C@H](C)c2c(F)ccc(C)c2C)c(F)cc1Cl` [Example 42], the IC50 in experiment [1] was 50 to 100 µM; in experiment [2], 1000 to 5000 nM.

For the compound `Cc1ccc(F)c([C@@H](C)[C@H](NS(=O)(=O)c2cn(C)nc2C)c2nn[nH]n2)c1C` [Example 43], the figures for the half-inhibitory concentration (IC50) in experiment [1] and in experiment [2] were 50 to 100 µM and 1000 to 5000 nM, respectively.

Regarding `Cc1ccc(F)c([C@@H](C)[C@H](NS(=O)(=O)c2cc(Cl)ccc2F)c2nn[nH]n2)c1C` [Example 44], the figures for the IC50 in experiment [1] and in experiment [2] were 50 to 100 µM and 1000 to 5000 nM, respectively.

As to `Cc1ccc(F)c([C@@H](C)[C@H](NS(=O)(=O)c2cc(Cl)ccc2Cl)c2nn[nH]n2)c1C` [Example 45], the half-maximal inhibitory concentration (IC50) lay within 50 to 100 µM in experiment [1] and 5000 to 30000 nM in experiment [2].

With `Cc1ccc(F)c([C@@H](C)[C@H](NS(=O)(=O)c2ccc(Cl)c3nonc23)c2nn[nH]n2)c1C` [Example 46], the 50% inhibitory concentration (IC50) in experiment [1] is 50 to 100 µM; in experiment [2], 100 to 1000 nM.

With `Cc1ccc(F)c([C@@H](C)[C@H](NS(=O)(=O)c2cccc3[nH]c(=O)ccc23)c2nn[nH]n2)c1C` [Example 47], the IC50 was 50 to 100 µM in experiment [1] and 100 to 1000 nM in experiment [2].

Regarding `Cc1cc(S(=O)(=O)N[C@H](c2nn[nH]n2)[C@H](C)c2c(F)ccc(C)c2C)ccc1Cl` [Example 48], the IC50 is 10 to 30 µM in experiment [1] and 100 to 1000 nM in experiment [2].

Regarding `Cc1ccc(F)c([C@@H](C)[C@H](NS(=O)(=O)c2ccc(Cl)c(F)c2)c2nn[nH]n2)c1C` [Example 49], the IC50 in experiment [1] fell in the range of 10 to 30 µM; in experiment [2], 100 to 1000 nM.

For the compound `Cc1ccc(F)c([C@@H](C)[C@H](NS(=O)(=O)c2ccc(Cl)cc2C(F)F)c2nn[nH]n2)c1C` [Example 50, 4-chloro-2-(difluoromethyl)-N-((1S,2R)-2-(6-fluoro-2,3-dimethylphenyl)-1-(2H-tetrazol-5-yl)propyl)benzenesulfonamide], the IC50 lay in the range of 30 to 50 µM in experiment [1] and 100 to 1000 nM in experiment [2].

In the case of `Cc1ccc(Cl)cc1S(=O)(=O)N[C@H](c1nn[nH]n1)[C@H](C)c1c(F)ccc(C)c1C` [Example 53, 5-chloro-N-((1S,2R)-2-(6-fluoro-2,3-dimethylphenyl)-1-(2H-tetrazol-5-yl)propyl)-2-methylbenzenesulfonamide], the 50% inhibitory concentration (IC50) in experiment [1] was in the range of 50 to 100 µM; in experiment [2], 5000 to 30000 nM.

As to `[2H]C([2H])([2H])Oc1cc(Cl)ccc1S(=O)(=O)N[C@H](c1nn[nH]n1)[C@H](C)c1c(F)ccc(C)c1C` [Example 54, 4-chloro-N-((1S,2R)-2-(6-fluoro-2,3-dimethylphenyl)-1-(2H-tetrazol-5-yl)propyl)-2-(methoxy-d3)benzenesulfonamide], the IC50 was 10 to 30 µM in experiment [1] and not above 100 nM in experiment [2].

Turning to `Cc1ccc(F)c([C@@H](C)[C@H](NS(=O)(=O)c2ccc(Cl)c(C)c2Cl)c2nn[nH]n2)c1C` [Example 55, 2,4-dichloro-N-((1S,2R)-2-(6-fluoro-2,3-dimethylphenyl)-1-(2H-tetrazol-5-yl)propyl)-3-methylbenzenesulfonamide], the IC50 in experiment [1] was 10 to 30 µM; in experiment [2] it was not above 100 nM.

Consider `Cc1ccc(F)c([C@@H](C)[C@H](NS(=O)(=O)c2c(F)cc(Cl)cc2F)c2nn[nH]n2)c1C` [Example 56, 4-chloro-2,6-difluoro-N-((1S,2R)-2-(6-fluoro-2,3-dimethylphenyl)-1-(2H-tetrazol-5-yl)propyl)benzenesulfonamide], for which the IC50 in experiment [1] lay within 50 to 100 µM; in experiment [2], 100 to 1000 nM.

For `Cc1ccc(F)c([C@@H](C)[C@H](NS(=O)(=O)c2ccc(Cl)c([C@@H](O)C(=O)N(C)C)c2)c2nn[nH]n2)c1C` [Example 57, (R)-2-(2-chloro-5-(N-((1S,2R)-2-(6-fluoro-2,3-dimethylphenyl)-1-(2H-tetrazol-5-yl)propyl)sulfamoyl)phenyl)-2-hydroxy-N,N-dimethylacetamide], the IC50 lay in the range of 50 to 100 µM in experiment [1] and 100 to 1000 nM in experiment [2].
